Activity calls are given as the source filed them. Some results are limits rather than exact numbers.

A short description of experiment [1]: luciferase reporter signal suppression in cells – H4 neuroglioma cells, luminescence, dose response (AID 1990). Type of experiment: functional, cell-based. For orientation: A reporter such as luciferase makes a cellular process visible.
Experiment [2] concerns Streptococcus sp. 'group A'. The experiment can be described thus: Streptococcus pyogenes SK(-)GAS viability under kanamycin – luminescence, BacTiterGlo, confirmation, counter-screen for streptokinase expression inhibitor project, dose response (AID 1900). Type of experiment: functional, organism-based. (Counterscreens check selectivity or assay interference.)
Experiment [3] in a line: Luminescence Cell-Based Dose Response HTS to Identify Inhibitors of 5'UTR Stem-Loop Driven Prion Protein mRNA Translation in H4 Neuroglioblastoma Cells. [Related pubchem assays: 1827 (Project Summary), 1813 (Primary HTS)]. Format: functional.
A short description of experiment [4]: alpha-synuclein stem-loop luciferase translation blockers – H4 neuroglioma cells, luminescence, confirmation (AID 1988). Type of experiment: functional, cell-based.
The target of experiment [5] is T1, Streptokinase A (Streptococcus pyogenes serotype M1, UniProt P10520).
T1 sequence (P10520 whole entry): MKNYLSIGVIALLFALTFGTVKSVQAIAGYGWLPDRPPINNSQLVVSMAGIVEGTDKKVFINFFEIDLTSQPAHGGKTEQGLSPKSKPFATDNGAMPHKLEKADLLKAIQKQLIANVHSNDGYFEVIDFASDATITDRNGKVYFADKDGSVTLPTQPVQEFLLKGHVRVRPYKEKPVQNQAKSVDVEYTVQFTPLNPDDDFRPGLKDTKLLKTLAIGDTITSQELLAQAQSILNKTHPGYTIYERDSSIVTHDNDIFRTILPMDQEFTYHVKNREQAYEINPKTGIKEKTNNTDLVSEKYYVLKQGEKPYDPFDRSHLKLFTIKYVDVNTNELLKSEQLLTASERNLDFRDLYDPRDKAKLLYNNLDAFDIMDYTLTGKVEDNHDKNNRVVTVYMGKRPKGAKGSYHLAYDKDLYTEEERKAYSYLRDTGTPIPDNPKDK
In words: viability-normalized secreted streptokinase activity reduction – plasminogen activation absorbance, OD405, dose response (AID 1914).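 Also: secreted streptokinase activity via plasminogen activation per viability signal from cell pellet.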 Format: functional, Streptococcus pyogenes M1 GAS.

Experiment [6] concerns Streptococcus. The experiment can be described thus: GAS UMAA2166 growth inhibition – luminescence, BacTiterGlo, counter-screen for streptokinase expression inhibitor project, dose response (AID 1915).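 Also: potency for reduction of bacterial viability or growth.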 Type of experiment: functional, organism-based.
In experiment [7] the test system is INS1. The experiment can be described thus: INS-1E survival protection against cytokine death – cell-based, luminescence, retest, dose response (AID 449756).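 Also: cell death triggered by IL-1 beta plus TNF-alpha plus IFN-gamma mixture; protective hits raise ATP signal compared with cytokine alone wells.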 The following applies: Rattus norvegicus. Format: functional.
Experiment [8] in a line: reduction of Shn3 3'UTR-driven luciferase in osteoblasts – cell-based, Clone20 osteoblasts, firefly luciferase, cherry-picked, dose response (AID 624132).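 Also: firefly luciferase luminescence from reporter carrying the Shn3 3'UTR in osteoblasts.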 Type of experiment: functional.
Experiment [9] can be described thus: loss of viability in HepG2 cells – cell-based, CellTiter-Glo, cherry-picked, cytotoxicity control for Shn3 inhibitor project, dose response (AID 624134). Format: functional.
The nature of experiment [10]: non-specific 3'UTR reporter inhibition in Clone20-Shn3RL – cell-based, Renilla luciferase, cherry-picked, counter-screen for Shn3 inhibitor project, dose response (AID 624133). Type of experiment: functional.
Experiment [11] concerns the target T2, Fatty acid synthase (Homo sapiens, UniProt P49327). The experiment can be described thus: inhibition of human FAS-TE enzyme activity – biochemical, endpoint fluorescence intensity, uHTS hits, dose response (AID 624327).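 Also: fluorescence from hydrolysis of an O-methyl fluorescein acyl ester substrate by the enzyme.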 Type of experiment: functional.
In experiment [12] the target is ATP-binding cassette sub-family B member 6 (Homo sapiens, UniProt Q9NP58). The experiment can be described thus: ABCB6 transporter inhibitors, porphyrin accumulation, dose response, flow cytometry, K562-ABCB6 cells, cherry pick 02 (AID 624487). Type of experiment: functional. To be noted: read-out: EC50_MICROM. Background: A flow cytometer gives signals particle by particle.
ATP-binding cassette sub-family B member 6, sequence (Q9NP58 whole entry): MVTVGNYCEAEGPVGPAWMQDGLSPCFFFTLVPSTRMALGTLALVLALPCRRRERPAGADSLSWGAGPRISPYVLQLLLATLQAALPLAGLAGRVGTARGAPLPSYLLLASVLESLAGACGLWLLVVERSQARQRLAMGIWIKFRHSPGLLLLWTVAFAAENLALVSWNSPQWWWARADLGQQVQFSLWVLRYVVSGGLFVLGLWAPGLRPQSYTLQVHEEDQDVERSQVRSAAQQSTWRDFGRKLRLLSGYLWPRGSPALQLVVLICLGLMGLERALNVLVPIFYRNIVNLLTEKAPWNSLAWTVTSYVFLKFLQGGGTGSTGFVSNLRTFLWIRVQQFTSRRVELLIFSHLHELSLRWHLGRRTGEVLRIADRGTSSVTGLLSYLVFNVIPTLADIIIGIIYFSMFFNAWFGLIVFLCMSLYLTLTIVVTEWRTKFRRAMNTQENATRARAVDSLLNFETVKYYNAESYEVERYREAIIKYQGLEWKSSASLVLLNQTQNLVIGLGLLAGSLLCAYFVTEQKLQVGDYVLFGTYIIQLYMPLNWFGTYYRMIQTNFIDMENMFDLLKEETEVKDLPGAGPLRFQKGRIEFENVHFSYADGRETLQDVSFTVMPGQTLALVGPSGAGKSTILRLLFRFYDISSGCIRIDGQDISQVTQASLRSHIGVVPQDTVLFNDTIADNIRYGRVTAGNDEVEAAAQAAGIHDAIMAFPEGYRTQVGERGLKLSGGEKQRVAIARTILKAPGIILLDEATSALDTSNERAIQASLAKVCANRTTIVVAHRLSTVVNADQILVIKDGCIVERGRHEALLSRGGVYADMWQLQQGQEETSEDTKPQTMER

The target of experiment [13] is T2, Fatty acid synthase. In words: inhibition of human FAS-TE enzyme activity – biochemical, kinetic fluorescence intensity, dose response (AID 624326).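 Also: rate of fluorescence rise from hydrolysis of a fluorogenic O-methyl fluorescein ester substrate.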 Type of experiment: functional.
Experiment [14] deals with Paired box protein Pax-8 (Homo sapiens, UniProt Q06710). The experiment can be described thus: PAX8 transcriptional activity inhibition in RMG-I – RMG-I cells, luciferase, cherry-pick, dose response (AID 687027).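 Also: luciferase reporter driven by Pax8 target thyroperoxidase promoter measured by SteadyGlo luminescence.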 Type of experiment: functional, cell-based.
Paired box protein Pax-8, sequence (Q06710 whole entry): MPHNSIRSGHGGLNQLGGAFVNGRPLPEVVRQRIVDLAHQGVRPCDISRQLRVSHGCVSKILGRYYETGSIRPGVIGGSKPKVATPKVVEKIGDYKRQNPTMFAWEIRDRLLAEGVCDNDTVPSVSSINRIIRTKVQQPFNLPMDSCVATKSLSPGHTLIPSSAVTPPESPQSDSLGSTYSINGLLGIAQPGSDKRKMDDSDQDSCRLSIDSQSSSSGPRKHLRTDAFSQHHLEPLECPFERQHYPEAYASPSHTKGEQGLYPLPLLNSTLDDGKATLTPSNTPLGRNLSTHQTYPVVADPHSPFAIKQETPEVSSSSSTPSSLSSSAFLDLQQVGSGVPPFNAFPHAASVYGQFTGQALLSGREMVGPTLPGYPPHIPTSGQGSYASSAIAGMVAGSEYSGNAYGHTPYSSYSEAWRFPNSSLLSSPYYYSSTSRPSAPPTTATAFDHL
Experiment [15] is described as follows: general cell-killing toxicity readout – plate reader, dry powder samples, cytotoxicity control for PAX8 inhibitor project, dose response (AID 743021). Type of experiment: functional, cell-based.
Experiment [16] concerns the target T3, Methionyl-tRNA synthetase, putative (Trypanosoma brucei brucei, UniProt Q38C91). Type of experiment: functional, Trypanosoma brucei brucei strain 927/4 GUTat10.1.
Experiment [17] is described as follows: Counterscreen for inhibitors of Trypanosoma brucei methionyl tRNA synthetase (MetRS): Luminescence-based cell-based high throughput dose response assay to identify compounds that are cytotoxic to Jurkat human T lymphocyte cells. Type of experiment: functional.
Experiment [18] deals with T3, Methionyl-tRNA synthetase, putative. Type of experiment: functional, Trypanosoma brucei brucei strain 927/4 GUTat10.1. This is another data set of the same source.
For experiment [19], the target named is Mu-type opioid receptor (Homo sapiens, UniProt P35372). Format: functional, cell-based.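 Also: U2OS cells with beta-arrestin recruitment to OPRM1 by beta-gal complementation.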
Mu-type opioid receptor, sequence (P35372 whole entry): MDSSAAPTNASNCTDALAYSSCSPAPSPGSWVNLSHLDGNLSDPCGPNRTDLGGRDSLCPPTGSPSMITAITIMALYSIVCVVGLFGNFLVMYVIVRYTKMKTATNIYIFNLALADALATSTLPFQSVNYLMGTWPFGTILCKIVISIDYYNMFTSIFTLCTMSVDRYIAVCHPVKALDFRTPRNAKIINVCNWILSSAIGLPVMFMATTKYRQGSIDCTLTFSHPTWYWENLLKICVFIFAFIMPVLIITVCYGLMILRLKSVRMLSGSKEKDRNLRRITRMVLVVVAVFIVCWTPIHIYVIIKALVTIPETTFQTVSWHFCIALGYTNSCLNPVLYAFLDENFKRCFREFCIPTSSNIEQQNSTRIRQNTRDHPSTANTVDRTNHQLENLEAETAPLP
Experiment [20] deals with 5-hydroxytryptamine receptor 2A (Mus musculus, UniProt P35363). Format: functional, cell-based.
The nature of experiment [21]: activation of miR-122 Renilla sensor silencing – cell-based, Huh7 psiCHECK-miR122, Renilla luciferase, cherry-picked, dose response (AID 651956).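 Also: huh7 hepatoma cells stably carrying a psiCHECK-2 miR-122 sensor plasmid; renilla luciferase signal reporting endogenous miR-122 activity after 48 h compound exposure.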 Type of experiment: functional.
In experiment [22] the target is Heat shock protein HSP 90-alpha (Homo sapiens, UniProt P07900). Format: functional, organism-based.
Experiment [23] can be described thus: Fluorescence-based cell-based high throughput dose response assay for inhibitors of the interaction of nucleotide-binding oligomerization domain containing 2 (NOD2) and the receptor-interacting serine-threonine kinase 2 (RIPK2). Format: functional. To be noted: Homo sapiens.
For experiment [24], the target named is Beta Lactamase (Pseudomonas aeruginosa, UniProt Q932Y6). In words: BLA reporter interference, concentration series – BLA reporter cells, FRET fluorescence, artefact control for NOD2-RIPK2 interaction inhibitor project, dose response (AID 651552). Type of experiment: functional, cell-based.
The nature of experiment [25]: viability loss in HeLa cells – cytotoxicity control for MgcRacGAP inhibitor project, dose response (AID 624300). Type of experiment: functional.
Experiment [26] has as its target T4, Rac GTPase-activating protein 1 (Homo sapiens, UniProt Q9H0H5).
T4 sequence (Q9H0H5 whole entry): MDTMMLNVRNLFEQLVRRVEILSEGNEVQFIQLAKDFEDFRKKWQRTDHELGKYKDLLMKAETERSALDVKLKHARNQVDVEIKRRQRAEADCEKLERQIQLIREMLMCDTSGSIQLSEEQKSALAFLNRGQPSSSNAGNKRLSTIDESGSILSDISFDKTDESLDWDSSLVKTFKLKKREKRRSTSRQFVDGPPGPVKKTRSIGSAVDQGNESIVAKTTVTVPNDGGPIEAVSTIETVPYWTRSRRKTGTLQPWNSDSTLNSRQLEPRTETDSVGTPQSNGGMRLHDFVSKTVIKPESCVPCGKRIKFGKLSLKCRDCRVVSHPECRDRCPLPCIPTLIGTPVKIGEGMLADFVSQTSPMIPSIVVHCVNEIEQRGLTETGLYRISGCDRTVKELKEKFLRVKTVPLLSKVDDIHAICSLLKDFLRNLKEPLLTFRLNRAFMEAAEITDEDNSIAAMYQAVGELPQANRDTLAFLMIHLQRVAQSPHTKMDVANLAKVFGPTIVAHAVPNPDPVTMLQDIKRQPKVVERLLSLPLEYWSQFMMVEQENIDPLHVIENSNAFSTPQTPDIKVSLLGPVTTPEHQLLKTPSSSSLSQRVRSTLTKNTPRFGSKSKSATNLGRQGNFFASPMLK
The experiment can be described thus: blockers of MgcRacGAP-driven Rac1 GTP hydrolysis – biochemical, ADP Hunter fluorescence, primary and confirmatory, confirmation (AID 624330). Type of experiment: functional.

T3 sequence (Q38C91 whole entry): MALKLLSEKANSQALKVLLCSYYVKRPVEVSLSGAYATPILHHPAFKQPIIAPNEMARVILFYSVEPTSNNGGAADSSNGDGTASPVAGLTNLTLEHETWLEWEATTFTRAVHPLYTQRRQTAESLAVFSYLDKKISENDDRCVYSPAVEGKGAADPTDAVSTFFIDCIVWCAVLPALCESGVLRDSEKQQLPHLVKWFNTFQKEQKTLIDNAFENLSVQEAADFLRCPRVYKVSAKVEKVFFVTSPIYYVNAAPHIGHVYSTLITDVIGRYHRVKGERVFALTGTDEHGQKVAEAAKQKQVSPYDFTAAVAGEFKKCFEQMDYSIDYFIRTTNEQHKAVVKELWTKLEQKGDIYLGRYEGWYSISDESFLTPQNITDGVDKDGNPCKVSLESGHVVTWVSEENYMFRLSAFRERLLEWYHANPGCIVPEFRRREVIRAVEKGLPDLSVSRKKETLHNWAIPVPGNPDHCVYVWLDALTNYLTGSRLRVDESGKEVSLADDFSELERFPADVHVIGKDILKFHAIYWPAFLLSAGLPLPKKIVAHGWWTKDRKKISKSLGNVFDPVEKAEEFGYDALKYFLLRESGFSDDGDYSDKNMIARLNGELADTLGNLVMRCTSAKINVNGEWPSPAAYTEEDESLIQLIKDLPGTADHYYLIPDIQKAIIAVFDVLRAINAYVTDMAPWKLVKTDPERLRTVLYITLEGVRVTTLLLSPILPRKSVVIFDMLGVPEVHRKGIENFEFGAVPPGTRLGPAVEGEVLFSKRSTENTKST
T2 sequence (P49327 whole entry): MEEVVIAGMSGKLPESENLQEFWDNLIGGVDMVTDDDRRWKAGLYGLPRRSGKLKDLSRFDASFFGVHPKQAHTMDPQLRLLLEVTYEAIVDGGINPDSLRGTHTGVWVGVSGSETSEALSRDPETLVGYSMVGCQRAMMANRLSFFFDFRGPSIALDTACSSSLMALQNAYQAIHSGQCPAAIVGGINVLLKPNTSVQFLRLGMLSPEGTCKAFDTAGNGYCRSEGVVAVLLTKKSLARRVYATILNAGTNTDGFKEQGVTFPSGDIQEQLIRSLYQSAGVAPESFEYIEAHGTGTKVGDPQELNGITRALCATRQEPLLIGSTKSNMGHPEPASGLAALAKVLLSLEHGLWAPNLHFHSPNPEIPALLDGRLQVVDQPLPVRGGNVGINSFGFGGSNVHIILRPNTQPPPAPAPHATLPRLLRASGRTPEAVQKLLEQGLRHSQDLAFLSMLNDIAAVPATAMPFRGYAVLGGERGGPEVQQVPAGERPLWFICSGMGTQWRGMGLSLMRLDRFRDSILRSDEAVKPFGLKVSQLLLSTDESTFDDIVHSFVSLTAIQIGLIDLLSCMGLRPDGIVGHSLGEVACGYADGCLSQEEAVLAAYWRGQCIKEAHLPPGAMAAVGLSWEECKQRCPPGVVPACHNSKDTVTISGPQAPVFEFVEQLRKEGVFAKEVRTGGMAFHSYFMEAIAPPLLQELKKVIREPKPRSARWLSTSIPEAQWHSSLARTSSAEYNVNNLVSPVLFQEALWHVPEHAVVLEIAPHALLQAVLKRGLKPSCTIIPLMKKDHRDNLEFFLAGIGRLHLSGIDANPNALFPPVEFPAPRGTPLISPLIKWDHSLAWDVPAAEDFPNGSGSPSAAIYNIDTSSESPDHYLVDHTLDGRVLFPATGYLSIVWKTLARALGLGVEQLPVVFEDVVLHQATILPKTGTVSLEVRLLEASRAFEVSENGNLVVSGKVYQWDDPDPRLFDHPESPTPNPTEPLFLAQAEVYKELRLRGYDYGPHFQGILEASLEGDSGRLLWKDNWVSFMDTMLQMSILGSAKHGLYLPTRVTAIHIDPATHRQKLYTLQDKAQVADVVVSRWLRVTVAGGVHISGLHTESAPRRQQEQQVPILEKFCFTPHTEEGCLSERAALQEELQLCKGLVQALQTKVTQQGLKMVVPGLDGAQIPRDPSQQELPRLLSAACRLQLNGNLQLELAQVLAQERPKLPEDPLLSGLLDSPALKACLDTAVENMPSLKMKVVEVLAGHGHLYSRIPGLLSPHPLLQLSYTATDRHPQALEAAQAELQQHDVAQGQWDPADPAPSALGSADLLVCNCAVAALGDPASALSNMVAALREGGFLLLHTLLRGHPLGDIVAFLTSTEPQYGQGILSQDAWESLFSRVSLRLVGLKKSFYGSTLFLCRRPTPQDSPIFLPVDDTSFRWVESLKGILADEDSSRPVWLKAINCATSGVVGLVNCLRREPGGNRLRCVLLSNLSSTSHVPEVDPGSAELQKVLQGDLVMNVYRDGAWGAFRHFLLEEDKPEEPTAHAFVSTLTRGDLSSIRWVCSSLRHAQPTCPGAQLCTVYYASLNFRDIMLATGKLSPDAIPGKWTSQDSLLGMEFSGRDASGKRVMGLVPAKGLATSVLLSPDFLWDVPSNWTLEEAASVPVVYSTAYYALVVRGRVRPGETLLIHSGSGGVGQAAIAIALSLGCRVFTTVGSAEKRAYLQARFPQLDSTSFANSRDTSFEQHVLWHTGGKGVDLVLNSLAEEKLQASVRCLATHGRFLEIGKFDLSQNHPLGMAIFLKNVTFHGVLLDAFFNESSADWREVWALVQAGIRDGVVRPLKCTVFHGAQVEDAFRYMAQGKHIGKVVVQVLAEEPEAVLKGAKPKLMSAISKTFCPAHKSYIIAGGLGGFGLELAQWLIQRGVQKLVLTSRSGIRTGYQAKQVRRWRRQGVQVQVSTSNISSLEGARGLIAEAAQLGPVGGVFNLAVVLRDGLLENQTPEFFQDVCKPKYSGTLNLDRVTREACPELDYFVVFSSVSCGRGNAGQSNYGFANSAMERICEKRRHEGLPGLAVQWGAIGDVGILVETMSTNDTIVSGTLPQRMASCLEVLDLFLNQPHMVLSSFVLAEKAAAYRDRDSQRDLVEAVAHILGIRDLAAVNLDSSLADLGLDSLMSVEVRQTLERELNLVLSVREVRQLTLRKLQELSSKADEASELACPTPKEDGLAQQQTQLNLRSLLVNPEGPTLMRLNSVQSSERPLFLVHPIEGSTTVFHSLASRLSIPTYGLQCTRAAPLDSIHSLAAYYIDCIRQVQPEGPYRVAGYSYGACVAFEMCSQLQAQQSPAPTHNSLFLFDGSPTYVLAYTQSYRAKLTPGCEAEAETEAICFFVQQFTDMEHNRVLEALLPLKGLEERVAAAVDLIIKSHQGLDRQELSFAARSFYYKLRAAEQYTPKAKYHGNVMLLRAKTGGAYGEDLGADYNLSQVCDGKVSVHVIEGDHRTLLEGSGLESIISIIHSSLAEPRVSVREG

For the molecule `CCOc1ccccc1NC(=O)c1nc(S(=O)(=O)Cc2cccc(C)c2)ncc1Cl`, the EC50 in [1] is > 120 µM (not active); in [2], 12 µM (active); in experiment [3] it was 10.9 µM (active); in experiment [4] it was 8.12 µM (active); in experiment [5] it was 1.28 µM (active); in [6], 15.7 µM (active). The EC50 in experiment [12] is 11.5 µM (active). Moreover, the AC50 – broadly, the midpoint of the concentration-response curve, whichever way the signal moves – in experiment [7] is 5.15 µM (active); in [8], 0.324 µM (active); in [9], 18.8 µM (active); in experiment [10] it was 6.38 µM (active); in experiment [14] it was 7.71 µM (active); in experiment [15], 24.4 µM (active). In addition, the figures for the IC50 in [11] and in experiment [13] were 11.5 µM (active) and 3.06 µM (active), respectively.

On to `Cc1cccc(NC(=O)CCNC(=O)c2ccc(Br)cc2)c1`, for which the figures for the IC50 in experiment [16], in experiment [17] and in experiment [18] were 5.8 µM (active), 83.3 µM (inactive) and 12.9 µM (inactive), respectively.

On to `O=C(NCCCN1CCN(c2ccccc2F)CC1)C1CCC(=O)N1C1CCCCC1` (configuration not stated), for which the EC50 in [19] is 92.5 µM (inactive); in experiment [20], 76.1 µM (inactive).

Take `CC(C)OCCCNC(=O)c1ccncc1`: the AC50 in experiment [21] is 37.6 µM (active).

With `O=C1/C(=C\c2ccc(Cl)c(Cl)c2)CN(C(=O)CCN2CCOCC2)C/C1=C/c1ccc(Cl)c(Cl)c1`, the values for the AC50 in [22] and in experiment [14] were 2.98 µM (active) and 2.65 µM (active), respectively. In addition, the IC50 – broadly, the midpoint of a concentration-inhibition curve – in experiment [23] was 0.614 µM (active); in experiment [24], 31.4 µM (inactive); in experiment [26], 121 µM (active). The CC50 (as a rule, the concentration that lowers cell viability or growth by half) in experiment [25] is 16.9 µM (active).

The values are drawn from ChEMBL document CHEMBL1201862, “PubChem BioAssay data set” (2004).
